Measurements published in ChEMBL document CHEMBL1142530, “Chalcogenopyrylium dyes as inhibitors/modulators of P-glycoprotein in multidrug-resistant cells” (Bioorg Med Chem, 2008).
Activity calls are given as the source filed them. No cut-off for these calls is given here.

What was measured:
[1] = Octanol-water partition coefficient, log P after 5 hrs by shake flask method; format: physicochemical
[2] = Inhibition of verapamil-induced ATPase activity in lipid activated mouse P-glycoprotein mdr3 cys-less mutant assessed as ATP hydrolysis per ug of protein
Mus musculus [3] = species on record: Mus musculus; experiment: Inhibition of verapamil-induced residual ATPase activity in lipid activated mouse P-glycoprotein mdr3 cys-less mutant assessed as ATP hydrolysis per ug of protein
Mus musculus [4] = species on record: Mus musculus; experiment: Inhibition of verapamil-induced specific ATPase activity in lipid activated mouse P-glycoprotein mdr3 cys-less mutant assessed as ATP hydrolysis per ug of protein at 100 uM
MDCK-II [5] = experiment: Apparent permeability from basolateral to apical side of MDCK2 cells over expressing MDR1 at 5 uM after 1 hr; format: functional, cell-based; conditions: Canis lupus familiaris
MDCK-II [6] = experiment: Apparent permeability from apical to basolateral side of MDCK2 cells over expressing MDR1 at 5 uM after 1 hr in presence of 25 uM LSN335984; format: functional, cell-based; conditions: Canis lupus familiaris
MDCK-II [7] = experiment: Apparent permeability from basolateral to apical side of MDCK2 cells over expressing MDR1 at 5 uM after 1 hr in presence of 25 uM LSN335984; format: functional, cell-based; conditions: Canis lupus familiaris
DNA = experiment: Binding affinity to calf thymus DNA relative to control; format: nucleic-acid assay; conditions: Bos taurus
[8] = Binding affinity to P-glycoprotein in presence of Escherichia coli sham lipids
MDCK-II [9] = experiment: Enhancement of calcein-AM uptake in MDCK2 cells over expressing MDR1 after 20 mins; format: functional, cell-based; conditions: Canis lupus familiaris
[10] = biological target: T1, MDR1 (ABCB1, P-glycoprotein) (Homo sapiens, UniProt P08183); experiment: Inhibition of MDR1 overexpressed in MDCK cells at 5 uM relative to LSN335984; format: cell-based; conditions: dog
T1 sequence (P08183 whole entry): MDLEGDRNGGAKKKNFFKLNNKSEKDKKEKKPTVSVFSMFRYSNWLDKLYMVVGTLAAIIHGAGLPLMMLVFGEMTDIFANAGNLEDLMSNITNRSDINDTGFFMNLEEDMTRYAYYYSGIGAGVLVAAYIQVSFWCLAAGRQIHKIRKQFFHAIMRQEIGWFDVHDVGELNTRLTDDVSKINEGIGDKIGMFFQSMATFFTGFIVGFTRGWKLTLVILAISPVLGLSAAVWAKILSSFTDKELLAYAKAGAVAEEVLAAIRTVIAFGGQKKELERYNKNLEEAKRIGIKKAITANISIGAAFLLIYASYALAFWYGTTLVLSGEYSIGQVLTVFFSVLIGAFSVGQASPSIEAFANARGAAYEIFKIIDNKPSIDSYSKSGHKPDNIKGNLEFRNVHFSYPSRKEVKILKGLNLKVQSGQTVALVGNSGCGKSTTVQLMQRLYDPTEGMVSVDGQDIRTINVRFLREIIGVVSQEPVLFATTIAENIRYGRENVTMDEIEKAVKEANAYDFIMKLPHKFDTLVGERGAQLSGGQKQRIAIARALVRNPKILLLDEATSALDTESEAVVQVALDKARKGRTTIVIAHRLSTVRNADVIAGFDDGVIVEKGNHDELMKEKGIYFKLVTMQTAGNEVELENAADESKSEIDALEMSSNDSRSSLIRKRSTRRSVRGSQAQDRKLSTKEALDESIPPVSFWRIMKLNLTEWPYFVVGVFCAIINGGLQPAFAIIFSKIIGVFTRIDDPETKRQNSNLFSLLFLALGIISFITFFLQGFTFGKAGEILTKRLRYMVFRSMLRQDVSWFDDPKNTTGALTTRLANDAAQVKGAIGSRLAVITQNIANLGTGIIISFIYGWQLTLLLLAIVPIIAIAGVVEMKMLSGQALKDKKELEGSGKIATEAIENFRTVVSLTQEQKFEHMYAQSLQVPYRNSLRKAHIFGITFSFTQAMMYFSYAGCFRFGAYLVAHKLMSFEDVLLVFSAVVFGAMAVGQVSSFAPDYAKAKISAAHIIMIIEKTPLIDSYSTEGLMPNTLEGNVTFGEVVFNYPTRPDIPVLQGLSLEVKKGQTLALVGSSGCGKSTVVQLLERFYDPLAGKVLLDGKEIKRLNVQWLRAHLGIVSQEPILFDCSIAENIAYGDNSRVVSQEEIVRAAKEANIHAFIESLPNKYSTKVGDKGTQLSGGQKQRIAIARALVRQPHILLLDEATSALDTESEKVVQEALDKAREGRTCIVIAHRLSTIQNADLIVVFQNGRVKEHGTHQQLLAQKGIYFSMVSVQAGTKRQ

[11] = biological target: T1, MDR1 (ABCB1, P-glycoprotein); experiment: (§1) Inhibition of MDR1 overexpressed in MDCK cells at 25 uM relative to LSN335984; format: cell-based; conditions: dog, MDCK-MDR1
MDCK-II [12] = experiment: Passive apparent permeability across MDCK2 cells over expressing MDR1 in presence of 25 uM LSN335984 after 1 hr; format: functional, cell-based; conditions: Canis lupus familiaris
MDCK-II [13] = experiment: Apparent permeability from apical to basolateral side of MDCK2 cells over expressing MDR1 after 1 hr; format: functional, cell-based; conditions: Canis lupus familiaris
MDCK-II [14] = experiment: Apparent permeability from basolateral to apical side of MDCK2 cells over expressing MDR1 after 1 hr; format: functional, cell-based; conditions: Canis lupus familiaris
MDCK-II [15] = experiment: Efflux ratio of permeability from basolateral to apical side to apical to basolateral side in MDCK2 cells over expressing MDR1 to permeability from basolateral to apical side to apical to basolateral side in MDCK2 cells over expressing MDR1 in presence of 25 uM LSN335984; format: functional, Canis lupus familiaris
[16] = Inhibition of [3H]vinblastine transport in human PEAK stable cells over expressing MDR1 assessed as [3H]vinblastine accumulation after 2.5 mins; format: functional, cell-based
MDCK-II [17] = experiment: Inhibition of [3H]vinblastine transport in MDCK2 cells over expressing MDR1 assessed as [3H]vinblastine accumulation after 2.5 mins; format: functional, cell-based; conditions: Canis lupus familiaris
[18] = (§2) Activity of verapamil-dependent ATPase in lipid activated mouse P-glycoprotein mdr3 cys-less mutant
Mus musculus [19] = species on record: Mus musculus; experiment: as §2
[20] = biological target: ATP-dependent translocase ABCB1 (Homo sapiens, UniProt P08183); experiment: as §1; format: cell-based; conditions: dog, mdck, 25 µM
Sequence of ATP-dependent translocase ABCB1 (P08183 whole entry): as above

Mus musculus [21] = species on record: Mus musculus; experiment: Activity of verapamil-dependent ATPase in lipid activated cys-less mouse mdr3 P-glycoprotein assessed per ug of protein
Mus musculus [22] = species on record: Mus musculus; experiment: Inhibition of verapamil-induced ATPase activity in lipid activated mouse P-glycoprotein mdr3 cys-less mutant assessed as ATP hydrolysis at 100 uM

Row | SMILES | logP at 5 h [1] | IC50 [2] [µM] | Activity (Mus musculus [3]) [nmol/min] | Activity (Mus musculus [4]) [nmol/min] | permeability (MDCK-II [5]) [%] | permeability (MDCK-II [6]) [%] | permeability (MDCK-II [7]) [%] | EC50 (MDCK-II [9]) [µM] | inhibition at 5 µM [10] [%] | inhibition at 25 µM [11] [%] | Papp (MDCK-II [12]) [×10⁻⁶ cm/s] | permeability (MDCK-II [13]) [×10⁻⁶ cm/s] | permeability (MDCK-II [14]) [×10⁻⁶ cm/s] | Ratio (MDCK-II [15]) | also measured
1 | Nc1ccc(-c2cc(-c3ccc(N4CCOCC4)cc3)cc(-c3ccc(N4CCOCC4)cc3)[s+]2)cc1 | 2.1 | 11 | 0.7 |  |  |  |  |  |  |  |  |  |  |  | 
2 | c1ccc(-c2cc(-c3ccc(N4CCOCC4)cc3)cc(-c3ccc(N4CCOCC4)cc3)[s+]2)cc1 | 2.1 | 30 | 1 |  |  |  |  |  |  |  |  |  |  |  | 
3 | c1ccc(-c2cc(-c3ccc(N4CCOCC4)cc3)[s+]c(-c3ccc(N4CCOCC4)cc3)c2)cc1 | 1.3 | 3.1 | 1 |  |  |  |  |  |  |  |  |  |  |  | 
4 | Cc1cc(C)c(-c2cc(-c3ccc(N(C)C)cc3)[te+]c(-c3ccc(N(C)C)cc3)c2)c(C)c1.F[P-](F)(F)(F)(F)F | 2.4 | 1.2 | 0.4 | 0.44 | 3 | 7 | 5 | 5.4 | 32 |  | 0.48 | 0.85 | 0.42 | 1.4 | IC50 [16]: 4.3 µM; IC50 (MDCK-II [17]): 9.6 µM; Ki [18]: 0.04 µM; Km (Mus musculus [19]): 16 µM; inhibition (INH) [20]: 230%; Vmax (Mus musculus [21]): 2.67 nmol/min
5 | CN(C)c1ccc(-c2cc(-c3ccc(N4CCOCC4)cc3)[se+]c(-c3ccc(N4CCOCC4)cc3)c2)cc1 | 2.3 | 55 | 0.4 |  |  |  |  |  |  |  |  |  |  |  | 
6 | CN(C)c1ccc(-c2cc(-c3ccccc3)[se+]c(-c3ccc(N)cc3)c2)cc1.F[P-](F)(F)(F)(F)F | 0.8 |  |  |  | 18 | 18 | 13 | 20 | 5 | 22 | 0.28 | 0.35 | 12 | 57 | 
7 | CN(C)c1ccc(-c2cc(-c3cccs3)cc(-c3ccc(N(C)C)cc3)[te+]2)cc1 | 2.2 | 7.9 | 0.9 |  |  |  |  |  |  |  |  |  |  |  | 
8 | CN(C)c1ccc(-c2cc(-c3ccc(N)cc3)[s+]c(-c3ccc(N(C)C)cc3)c2)cc1.F[P-](F)(F)(F)(F)F | 2.2 | 0.7 | 1.6 | 0.93 | 19 | 16 | 17 | 35 | 2 | 16 | 3.2 | 5.3 | 4.2 | 1.6 | 
9 | CN(C)c1ccc(-c2cc(-c3ccc(N)cc3)[se+]c(-c3ccc(N)cc3)c2)cc1.F[P-](F)(F)(F)(F)F | 2.2 | > 100 | 2.5 |  | 12 | 14 | 10 | 25 | 6 | 29 | 0.28 | 0.34 | 4.5 | 17 | Activity (Mus musculus [22]): inactive
10 | CN(C)c1ccc(-c2cc(-c3ccccc3)[s+]c(-c3ccc(N)cc3)c2)cc1.F[P-](F)(F)(F)(F)F | 0 | 5.3 | 0.9 |  | 24 | 19 | 20 | 14 | 7 | 14 | 0.31 | 0.37 | 17 | 70 | 

Second part, led by results:

Row | logP at 5 h [1] | IC50 [2] [µM] | Activity (Mus musculus [3]) [nmol/min] | Activity (Mus musculus [4]) [nmol/min] | SMILES | permeability (MDCK-II [5]) [%] | permeability (MDCK-II [6]) [%] | permeability (MDCK-II [7]) [%] | EC50 (MDCK-II [9]) [µM] | inhibition at 5 µM [10] [%] | inhibition at 25 µM [11] [%] | Papp (MDCK-II [12]) [×10⁻⁶ cm/s] | permeability (MDCK-II [13]) [×10⁻⁶ cm/s] | permeability (MDCK-II [14]) [×10⁻⁶ cm/s] | Ratio (MDCK-II [15]) | also measured
11 | 1.2 | 5.7 | 0.9 |  | Cc1cc(-c2ccc(N(C)C)cc2)[s+]c(-c2ccc(N(C)C)cc2)c1 |  |  |  |  |  |  |  |  |  |  | 
12 | 2.1 | 71 | 0 | 0.3 | Cc1cc(C)c(-c2cc(-c3ccc(N(C)C)cc3)[s+]c(-c3ccc(N(C)C)cc3)c2)c(C)c1 |  |  |  |  |  |  |  |  |  |  | 
13 | 1.5 | 0.88 | 1.4 | 0.7 | CN(C)c1ccc(-c2cc(-c3ccc(N(C)C)cc3)[s+]c(C(C)(C)C)c2)cc1.[I-] | 37 | 44 | 25 | 7.1 | 25 | 60 | 0.34 | 0.53 | 34 | 134 | Activity (DNA): > 60; Kapp [8]: 4.7 ×10⁻⁷ M
14 | 0.1 | 1 | 1.3 | 0.74 | CCc1cc(-c2ccc(N(C)C)cc2)cc(-c2ccc(N(C)C)cc2)[s+]1 |  |  |  |  |  |  |  |  |  |  | 
15 | 1.6 |  |  |  | CN(C)c1ccc(-c2cc(-c3ccc(N(C)C)cc3)[se+]c(C(C)(C)C)c2)cc1.[I-] | 26 | 37 | 23 | 6.7 | 23 | 67 | 0.28 | 0.23 | 29 | 161 | 
16 | 0.6 | 15 | 0.5 | 0.48 | Cc1cc(-c2ccc(N(C)C)cc2)cc(-c2ccc(N(C)C)cc2)[s+]1.[I-] | 25 | 24 | 17 | 16 | 13 | 74 | 0.42 | 0.58 | 5.1 | 14 | Activity (DNA): > 60; Kapp [8]: 4.5 ×10⁻⁶ M
17 | 1.2 | > 100 | 2.5 | 1.37 | CCCc1cc(-c2ccc(N(C)C)cc2)cc(-c2ccc(N(C)C)cc2)[s+]1.[I-] | 11 | 8 | 11 | 9.8 | 15 | 87 | 2.2 | 0.15 | 37 | 390 | Activity (DNA): > 60; Kapp [8]: 2.2 ×10⁻⁶ M; Activity (Mus musculus [22]): inactive
